According to patent US20170079989A1, “METHOD FOR TREATMENT OF OSTEOARTHRITIS AND OTHER JOINT RELATED INJURIES AND CONDITIONS” (priority 2010, published 2017):
Entries after “also recorded” stand apart in the source; their conditions may differ.

Experiments:
[1] = In vitro release (elution testing) of injectable formulations in sterile PBS at 37 degrees C.; assay type: physicochemical; settings: drug encapsulated in SAIB nanoparticles suspended in hyaluronic acid solution, dialysis tubing, 50 rpm, UV-Vis
Procedure: About 21 mg of curcumin was dissolved in 2 ml of DMSO/SAIB (9:1 ratio of DMSO to SAIB in ethanol). The concentration of SAIB in the solution was about 104 mg per ml of DMSO/SAIB/Ethanol solution. This solution of curcumin/DMSO/SAIB/Ethanol was added drop wise to PBS while stirring. The nanoparticles of curcumin/SAIB formed when the DMSO/ethanol diffused out into the PBS (FIG. 3). 0.5 ml of the nanoparticle solution was then mixed with 2.5 ml of 1% Hyaluronic acid (HA) in PBS. The final mixture was then used for testing of injectability and for elution study.
Elution testing of various injectable formulations as described in example 2 was carried out in sterile PBS and at 37 degrees C. Drugs such as rapamycin, curcumin and sulfasalazine were used in the testing of various formulations. Each formulation was pipetted into a segment of dialysis tubing (Sigma Cat. D0530) with both ends of the tubing sealed. The dialysis tubing with the formulation was then placed inside a container and 15 ml of sterile PBS was added to the container. The container was then placed in an incubator shaker at 37 degrees C., 50 rpm and samples were withdrawn at regular time intervals and replaced with fresh sterile PBS. The samples were measured photometrically (UV-Vis) at a wavelength of 420 nanometers for curcumin, 359 nanometers for sulfasalazine and 278 nanometers for rapamycin.

[2] = Injectable formulation of sulfasalazine in SAIB/DMSO injected into an aqueous environment; assay type: physicochemical; settings: drug/DMSO mixed 1:1 with SAIB gel (90% in ethanol)
Source text: FIG. 2 is a drawing of the injectable formulation of FIG. 1 when injected into an aqueous environment. The liquid formulation of drug, DMSO and SAIB formed a liquid gel after the ethanol component in the SAIB and DMSO diffused out into the water. […] Controlled release of the drug over a long period of time can be beneficial to treat chronic inflammation in osteoarthritis. A known amount of sulfasalazine was weighed and dissolved in DMSO. This solution of sulfasalazine/DMSO was then mixed in 1:1 ratio with SAIB gel (90% by weight in ethanol). The mixture as shown in FIG. 1 can be loaded into a syringe and injected through a 20 GA needle. The mixture formed a gel that encapsulated the drug after the solvents (DMSO and ethanol) diffused out of the aqueous environment (FIG. 2).

[3] = cited from earlier work

SMILES	release kinetics of drug from the injectable formulation [1]	release of drug from the SAIB gel [2]	water solubility [3]
COc1cc(/C=C/C(=O)CC(=O)/C=C/c2ccc(O)c(OC)c2)ccc1O [curcumin, Curcumin]	released over an extended period of time; also recorded: controlled release manner	–	–
O=C(O)c1cc(/N=N/c2ccc(S(=O)(=O)Nc3ccccn3)cc2)ccc1O [sulfasalazine, Sulfasalazine]	high at the beginning and level off quickly in a few days	slowly diffused out of the gel in a controlled release manner	slightly water soluble
